The text below walks through data of DBAASP.

Broadly, the MIC is the least concentration at which growth counts as inhibited. High values mean weaker potency, low ones greater potency.

What all share (assay): ≥ marks a high value that may be exact or a test limit, other limits are often not marked, values filed in µg/mL are converted to µM
Experiment [1] has as its system Bacillus subtilis ATCC 6633.
Experiment [2] relates to Escherichia coli ATCC 25922.
For experiment [3], the system named is Listeria monocytogenes ATCC 7644.
Experiment [4] relates to Salmonella enterica subsp. enterica serovar Typhi ATCC 6399.
The test system of experiment [5] is Shigella flexneri.
The test system of experiment [6] is Staphylococcus aureus ATCC 25923.
Experiment [7] concerns Streptococcus agalactiae.
Experiment [8] has as its system Candida albicans ATCC 90028.
Experiment [9] deals with Enterobacter cloacae HNTCC 53001.
Experiment [10] concerns Enterococcus faecalis ATCC 29212.
Experiment [11] has as its system Klebsiella pneumoniae KK3 9904.
Experiment [12] has as its system Proteus mirabilis ATCC 25933.
Experiment [13] has as its system Pseudomonas aeruginosa ATCC 27853.
The subject of experiment [14] is Staphylococcus aureus NCTC 8325.
The test system of experiment [15] is Staphylococcus epidermidis RP62A.
Experiment [16] concerns Bacillus subtilis.
Experiment [17] deals with Escherichia coli HB101.
The test system of experiment [18] is Pseudomonas aeruginosa.
The subject of experiment [19] is Salmonella typhimurium.
For experiment [20], the system named is Staphylococcus aureus.
Experiment [21] relates to Micrococcus luteus ATCC 4698.
In experiment [22] the test system is Candida albicans ATCC 64550.
The test system of experiment [23] is Pseudomonas aeruginosa ATCC 9027.
Experiment [24] has as its system Staphylococcus aureus ATCC 29737.
The test system of experiment [25] is Staphylococcus aureus USA 100.
In experiment [26] the test system is Staphylococcus aureus USA 300.
For experiment [27], the system named is Staphylococcus epidermidis ATCC 12228.
For experiment [28], the system named is Corynebacterium xerosis C875.
The test system of experiment [29] is Escherichia coli DC2.
In experiment [30] the test system is Escherichia coli UB1005.
The test system of experiment [31] is Staphylococcus epidermidis C621.
Experiment [32] concerns Escherichia coli W160-37.

Values after ≈ are worked out from the molar mass of the structure shown. A value given as a limit tells only on which side of the number the result lay.

`CC[C@H](C)[C@H](NC(=O)[C@H](CC(C)C)NC(=O)[C@H](CCCCN)NC(=O)[C@H](CC(C)C)NC(=O)[C@H](C)NC(=O)CNC(=O)[C@H](CCCCN)NC(=O)[C@H](C)NC(=O)[C@H](CC(C)C)NC(=O)[C@H](C)NC(=O)CNC(=O)[C@H](Cc1c[nH]c2ccccc12)NC(=O)[C@@H](N)Cc1ccccc1)C(=O)NCC(=O)N[C@H](C(=O)NCC(=O)N[C@@H](CO)C(=O)N[C@@H](CC(C)C)C(=O)N[C@@H](Cc1ccccc1)C(=O)N[C@@H](CO)C(=O)N[C@@H](CO)C(=O)N[C@@H](Cc1ccccc1)C(=O)N[C@@H](CO)C(=O)N[C@@H](CCCCN)C(=O)N[C@@H](CCCCN)C(=O)N[C@@H](CC(=O)O)C(=O)O)C(C)C` [FWGALAKGALKLIGVGSLFSSFSKKD]: the MIC in experiment [1] is ≥ 37.5 µM; in [2], 37.5 µM (≈ 102 µg/mL); in experiment [3], ≥ 37.5 µM; in experiment [4], ≥ 37.5 µM; in [5], ≥ 37.5 µM; in [6] it was 75 µM (≈ 205 µg/mL). For the same compound, the MIC in experiment [7] was ≥ 37.5 µM.
`CC[C@H](C)[C@H](NC(=O)CNC(=O)[C@H](CCCCN)NC(=O)[C@H](Cc1ccccc1)NC(=O)[C@@H](NC(=O)[C@H](CCCCN)NC(=O)[C@H](CCCCN)NC(=O)[C@H](CC(C)C)NC(=O)[C@H](C)NC(=O)[C@H](CCCCN)NC(=O)[C@H](CC(C)C)NC(=O)CN)C(C)C)C(=O)N[C@@H](Cc1cnc[nH]1)C(=O)N[C@@H](CCCCN)C(=O)N[C@@H](C)C(=O)N[C@H](C(=O)N[C@@H](CCCCN)C(=O)N[C@@H](CC(C)C)C(=O)N[C@H](C(=O)N[C@@H](CC(N)=O)C(=O)N[C@@H](CC(N)=O)C(=O)N[C@@H](Cc1cnc[nH]1)C(=O)N[C@H](C(=O)N[C@@H](CCC(N)=O)C(=O)O)C(C)C)[C@@H](C)CC)[C@@H](C)CC` [GLKALKKVFKGIHKAIKLINNHVQ]: the MIC in experiment [8] was ≥ 80 µM; in experiment [9], 5 µM (≈ 13.5 µg/mL); in experiment [10], > 80 µM; in [2] it was 5 µM (≈ 13.5 µg/mL); in experiment [11] it was 5 µM (≈ 13.5 µg/mL); in experiment [12], ≥ 80 µM. Besides, the MIC was determined as 5 µM (≈ 13.5 µg/mL) in [13], 20 µM (≈ 54 µg/mL) in experiment [14] and 10 µM (≈ 27 µg/mL) in [15].
In the case of `CC[C@H](C)[C@H](NC(=O)[C@@H](NC(=O)[C@@H]1CCCN1C(=O)[C@@H](NC(=O)[C@@H]1CCCN1C(=O)[C@H](CCCCN)NC(=O)[C@H](CCCCN)NC(=O)[C@H](CO)NC(=O)CN)C(C)C)[C@@H](C)CC)C(=O)N[C@@H](Cc1ccc(O)cc1)C(=O)N[C@H]1CSSC[C@@H](C(=O)N[C@@H](CCC(N)=O)C(=O)N[C@@H](CCCN=C(N)N)C(=O)N[C@@H](CCSC)C(=O)O)NC(=O)[C@H](CCCCN)NC(=O)[C@H]([C@@H](C)O)NC(=O)[C@H](CCCN=C(N)N)NC(=O)[C@H](CCCN=C(N)N)NC(=O)[C@H](CC(N)=O)NC1=O` [GSKKPVPIIYCNRRTKCQRM], the MIC is 5.2 µM (≈ 12.4 µg/mL) in [16]; 2.6 µM (≈ 6.18 µg/mL) in [17]; 5.2 µM (≈ 12.4 µg/mL) in [18]; 1.3 µM (≈ 3.09 µg/mL) in experiment [19]; 20.8 µM (≈ 49.4 µg/mL) in experiment [20].
Regarding `CC[C@H](C)[C@H](N)C(=O)N[C@@H](C)C(=O)N[C@@H](CCC(N)=O)C(=O)N[C@@H](CCC(N)=O)C(=O)N[C@@H](C)C(=O)N[C@@H](C)C(=O)N[C@@H](CC(N)=O)C(=O)N[C@H](C(=O)N[C@@H](C)C(=O)N[C@@H](C)C(=O)N[C@H](C(=O)N[C@@H](C)C(=O)N[C@@H](CCCN=C(N)N)C(=O)NCC(=O)O)[C@@H](C)O)C(C)C` [IAQQAANVAATARG], in experiment [21], the MIC was determined as 8.84 µM (≈ 11.9 µg/mL). This lies in the single-digit micromolar range.
With `CC[C@H](C)[C@H](N)C(=O)N[C@@H](CCCCN)C(=O)N[C@H](C(=O)N[C@@H](CCCCN)C(=O)N[C@H](C(=O)N[C@@H](CCCCN)C(=O)N[C@H](C(=O)N[C@@H](CCCCN)C(N)=O)[C@@H](C)CC)[C@@H](C)CC)[C@@H](C)CC` [IKIKIKIK], the MIC in experiment [22] was 3.13 µM (≈ 3.07 µg/mL); in [8], 1.56 µM (≈ 1.53 µg/mL); in [2] it was 31.8 µM (≈ 31.3 µg/mL); in [23], 6.25 µM (≈ 6.14 µg/mL); in [24], ≥ 127 µM; in [25], 25 µM (≈ 24.6 µg/mL). In addition, the MIC was determined as 25 µM (≈ 24.6 µg/mL) in experiment [26] and 2.03 µM (≈ 2 µg/mL) in experiment [27].
With `C[C@H](NC(=O)[C@H](C)NC(=O)[C@H](C)NC(=O)[C@H](Cc1c[nH]c2ccccc12)NC(=O)[C@H](Cc1ccccc1)NC(=O)[C@H](C)NC(=O)[C@H](C)NC(=O)[C@H](C)NC(=O)[C@H](C)NC(=O)[C@H](CCCCN)NC(=O)[C@H](CCCCN)NC(=O)[C@H](CCCCN)NC(=O)[C@H](CCCCN)NC(=O)[C@H](CCCCN)NC(=O)[C@@H](N)CCCCN)C(=O)N[C@@H](C)C(=O)N[C@@H](Cc1ccccc1)C(N)=O` [KKKKKKAAAAFWAAAAF], the MIC in experiment [28] was 0.5 µM (≈ 0.918 µg/mL); in experiment [2], 16 µM (≈ 29.4 µg/mL); in experiment [29] it was 0.5 µM (≈ 0.918 µg/mL); in experiment [30] it was 2 µM (≈ 3.67 µg/mL); in experiment [13] it was 16 µM (≈ 29.4 µg/mL); in experiment [31], 8 µM (≈ 14.7 µg/mL).
On to `CC(C)C[C@H](NC(=O)[C@H](CCCCN)NC(=O)[C@H](CCCCN)NC(=O)[C@H](Cc1ccccc1)NC(=O)[C@H](Cc1ccccc1)NC(=O)[C@H](CCCCN)NC(=O)[C@H](CCCCN)NC(=O)[C@H](C)NC(=O)[C@H](CCCN=C(N)N)NC(=O)[C@@H](N)CCCCN)C(=O)N[C@@H](CCCCN)C(N)=O` [KRAKKFFKKLK], for which the minimal inhibitory concentration (MIC) in [22] is ≥ 100 µM.
`NCCCC[C@H](NC(=O)[C@H](CO)NC(=O)[C@H](Cc1cnc[nH]1)NC(=O)[C@H](CCCN=C(N)N)NC(=O)[C@H](Cc1cnc[nH]1)NC(=O)[C@H](CO)NC(=O)[C@H](CCC(N)=O)NC(=O)[C@H](Cc1ccc(O)cc1)NC(=O)[C@@H](N)CC(N)=O)C(=O)N[C@@H](CO)C(=O)O` [NYQSHRHSKS]: in experiment [21], the MIC was ≥ 75 µM.
Take `CC[C@H](C)[C@H](NC(=O)[C@H](Cc1c[nH]c2ccccc12)NC(=O)[C@H](CCCCN)NC(=O)[C@H](CC(C)C)NC(=O)[C@H](Cc1ccccc1)NC(=O)[C@@H](NC(=O)[C@H](CCCCN)NC(=O)[C@H](CC(C)C)NC(=O)[C@H](CC(C)C)NC(=O)[C@H](CCCCN)NC(=O)[C@@H]1CCCN1)[C@@H](C)O)C(=O)NCC(=O)O` [PKLLKTFLKWIG]: the MIC in [32] is 25 µM (≈ 36.1 µg/mL); in [20] it was 14 µM (≈ 20.2 µg/mL).
